Here are results for 14 compounds from US9204653B2, “5-fluoro pyrimidine derivatives” (DOW AGROSCIENCES LLC, priority 2008, dated 2015).

Where two headings read alike, the source gives them in different places.

The assay has as its system Mycosphaerella graminicola; Anamorph: Septoria tritici; Bayer Code SEPTTR. Kind of assay: Leaf blotch of wheat, foliar fungicide treatment, one day protectant (1DP) or three day curative (3DC). The note with it: Zymoseptoria tritici. In kind it is in vivo, Septoria tritici on wheat plants (variety Yuma).
The mark [1] stands for this setting: 24 h, one day protectant, rating of percent disease control, read-out: SETTTR 1DP 25 ppm.
Setting [2] is: 24 h, one day protectant, rating of percent disease control, read-out: SEPTTR 1DP 100 ppm.
Where [3] appears, read: 72 h, three day curative, rating of percent disease control, read-out: SEPTTR 3DC 25 ppm.
[4] abbreviates: 72 h, three day curative, rating of percent disease control, read-out: SEPTTR 3DC 100 ppm.
The mark [5] stands for this setting: 24 h, one day protectant (1DP), rating of percent disease control, read-out: SETTTR 1DP 25 ppm.
Where [6] appears, read: 24 h, one day protectant (1DP), rating of percent disease control, read-out: SEPTTR 1DP 100 ppm.
Setting [7] is: 72 h, three day curative (3DC), rating of percent disease control, read-out: SEPTTR 3DC 25 ppm.
The mark [8] stands for this setting: 72 h, three day curative (3DC), rating of percent disease control, read-out: SEPTTR 3DC 100 ppm.
[9] abbreviates: 24 h, % disease control rating, one day protectant.

As for `Cc1ccc(CNc2nc(OCc3ccc(C)cc3)ncc2F)cc1` [Compound 717], the pest or weed control at 25 ppm lay in the range of 51 to 75% under setting [1] and 76 to 100% under setting [3]. Further, the pest or weed control at 100 ppm lay within 76 to 100% under setting [2] and 76 to 100% under setting [4].

On to `O=C(Nc1nc(OCc2cccc(F)c2)ncc1F)OCc1cccc(F)c1` [Compound 360], for which the pest or weed control at 25 ppm under setting [5] lay within 76 to 100% and the pest or weed control at 25 ppm under setting [7] lay in the range of 76 to 100%. The pest or weed control at 100 ppm was in the range of 76 to 100% under setting [6] and 76 to 100% under setting [8].

As to `Nc1nc(OCc2cc(Cl)cc(Cl)c2)ncc1F` [Compound 404], the pest or weed control at 25 ppm under setting [5] fell in the range of 76 to 100% and the pest or weed control at 25 ppm under setting [7] fell in the range of 76 to 100%. Besides, the pest or weed control at 100 ppm by setting is: under setting [6], 76 to 100%; under setting [8], 76 to 100%.

Turning to `Fc1cnc(OC2CCCCC2)nc1NCc1ccc(Cl)cc1` [Compound 903], the pest or weed control at 50 ppm (24 h, % disease control rating, one day protectant, 50 ppm) fell in the range of 0 to 25%. The same compound displayed a pest or weed control at 200 ppm under setting [9] of 76 to 100%.

In the case of `CCOCNc1nc(OCc2cccc(C#N)c2)ncc1F` [Compound 516], the pest or weed control at 25 ppm was in the range of 76 to 100% under setting [5] and 76 to 100% under setting [7]. Moreover, the pest or weed control at 100 ppm by setting is: under setting [6], 76 to 100%; under setting [8], 76 to 100%.

On to `Cc1ccc(S(=O)(=O)Oc2ncc(F)c(N)n2)cc1` [Compound 671], for which the pest or weed control at 25 ppm runs as follows: under setting [1], 76 to 100%; under setting [3], 76 to 100%. Further, the pest or weed control at 100 ppm reads like this: under setting [2], 76 to 100%; under setting [4], 76 to 100%.

With `Nc1nc(OCc2cc3cccnc3s2)ncc1F` [Compound 578], the pest or weed control at 25 ppm runs as follows: under setting [1], 76 to 100%; under setting [3], 76 to 100%. The pest or weed control at 100 ppm lay in the range of 76 to 100% under setting [2] and 76 to 100% under setting [4].

For the compound `O=C(NCc1ccccc1F)Nc1nc(OCc2ccccc2)ncc1F` [Compound 371], the pest or weed control at 25 ppm lay within 0 to 25% under setting [5] and 0 to 25% under setting [7]. For the same compound, the pest or weed control at 100 ppm reads like this: under setting [6], 0 to 25%; under setting [8], 0 to 25%.

On to `Fc1cnc(OCc2cccc(C(F)(F)F)c2)nc1NC1CC1` [Compound 826], for which the pest or weed control at 200 ppm under setting [9] lay within 76 to 100%.

With `Nc1nc(OCc2cc(Cl)cc(C(F)(F)F)c2)ncc1F` [Compound 743], the pest or weed control at 25 ppm runs as follows: under setting [5], 76 to 100%; under setting [7], 76 to 100%. Moreover, the pest or weed control at 100 ppm was in the range of 76 to 100% under setting [6] and 76 to 100% under setting [8].

As for `COc1cccc(COc2ncc(F)c(N)n2)c1OC` [Compound 609], the pest or weed control at 25 ppm lay within 76 to 100% under setting [1] and 76 to 100% under setting [3]. Further, the pest or weed control at 100 ppm by setting is: under setting [2], 76 to 100%; under setting [4], 76 to 100%.

As for `CCC(C)/C(C)=N/Nc1nc(OCc2ccc(C)cc2)ncc1F` (stereo not drawn) [Compound 533], the pest or weed control at 25 ppm fell in the range of 51 to 75% under setting [5] and 0 to 25% under setting [7]. The pest or weed control at 100 ppm runs as follows: under setting [6], 51 to 75%; under setting [8], 26 to 50%.

With `Nc1nc(OCc2cnccn2)ncc1F` [Compound 699], the pest or weed control at 25 ppm reads like this: under setting [1], 76 to 100%; under setting [3], 51 to 75%. The pest or weed control at 100 ppm was 76 to 100% under setting [2] and 76 to 100% under setting [4].

For the compound `COc1cccc(COc2ncc(F)c(NN3CCN(C)CC3)n2)c1` [Compound 77], the pest or weed control at 25 ppm (24 h, one day protectant (1DP), percent disease control rating, read-out: SETTTR 1DP 25 ppm) lay in the range of 0 to 25% and the pest or weed control at 25 ppm (72 h, three day curative (3DC), percent disease control rating, read-out: SEPTTR 3DC 25 ppm) lay in the range of 26 to 50%. Also, the pest or weed control at 100 ppm fell in the range of 76 to 100% (24 h, one day protectant (1DP), percent disease control rating, read-out: SEPTTR 1DP 100 ppm) and 76 to 100% (72 h, three day curative (3DC), percent disease control rating, read-out: SEPTTR 3DC 100 ppm).
